pEC50: −log10 of the molar value. Like-named read-outs stand apart in the source and are kept apart here.

Our source for the MRT, solubility and EC50 values is patent US20250382344A1, “Soluble GLP1/GIP/NPY2 Receptor Triple Agonists” (Boehringer Ingelheim International GmH, priority 2024, published 2025).

A short description of data set [1]: Mouse PK after intravenous application. Format: in vivo. Conditions: plasma, male NMRI mice, intravenous 30-60 nmol/kg, non-compartmental analysis. The method, then:
Pharmacokinetic parameters of the peptides were determined after intravenous application to NMRI mice (Naval Medical Research Institute mice). Male NMRI mice were obtained from Janvier Laboratories (France) weighing 30 g to 40 g. Mice were housed in standard cages with a 12:12 hours light:dark cycle and standard food and water access ad libitum. Each test peptide was dissolved in 50 mM phosphate buffer (pH 7.4)/3.5% mannitol. Intravenous application of 30-60 nmol/kg was performed via the tail vein. Serial blood samples from conscious mice were collected from the saphenous vein in EDTA-containing vials at different time points up to 56 hours post-dosing. Subsequently, plasma was prepared by centrifugation for 5 minutes at approximately 5000 rpm and stored at −20° C. until quantification of the peptide plasma levels by liquid chromatography mass spectrometry (LC-MS). Individual plasma concentration-time profiles were analysed by a non-compartmental approach and the resulting pharmacokinetic parameters were calculated.

Data set [2] can be described thus: Solubility in 0.1 M phosphate buffer at pH 7. The format is physicochemical. Conditions: 0.1 M phosphate buffer at pH 7, 10 mg/mL final peptide concentration, shaking 2 hours at room temperature, peptides as TFA-salts, measured sample pH 6.5-7.0.
The next data set addresses T1, hGIPR (Homo sapiens, UniProt P48546).
T1 construct: expressed in transfected cells; host or cells: CHO CRE-luciferase reporter cells
T1 sequence (P48546 22-466): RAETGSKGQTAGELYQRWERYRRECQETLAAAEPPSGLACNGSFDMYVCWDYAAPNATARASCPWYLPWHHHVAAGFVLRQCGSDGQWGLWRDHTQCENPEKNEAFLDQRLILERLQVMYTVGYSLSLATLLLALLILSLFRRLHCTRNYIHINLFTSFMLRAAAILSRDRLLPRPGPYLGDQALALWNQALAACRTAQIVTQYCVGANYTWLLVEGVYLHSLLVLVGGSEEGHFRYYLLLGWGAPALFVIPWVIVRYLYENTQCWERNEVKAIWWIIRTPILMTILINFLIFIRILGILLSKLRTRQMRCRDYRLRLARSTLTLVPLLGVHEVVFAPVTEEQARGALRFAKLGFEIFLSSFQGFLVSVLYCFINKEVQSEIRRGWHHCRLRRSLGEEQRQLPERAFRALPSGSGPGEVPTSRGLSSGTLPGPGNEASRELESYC
The experiment in a line: hGIPR CreLuc assay in 0.5% and 100% plasma (CHO CRE-luciferase reporter cells). Format: cell-based. In general terms: A reporter such as luciferase makes a cellular process visible.

For the next data set, the target named is T2, hGLP1R (Homo sapiens, UniProt P43220).
T2 construct: expressed in transfected cells; host or cells: HEK-293 CRE-luciferase reporter cells
T2 sequence (P43220 24-463): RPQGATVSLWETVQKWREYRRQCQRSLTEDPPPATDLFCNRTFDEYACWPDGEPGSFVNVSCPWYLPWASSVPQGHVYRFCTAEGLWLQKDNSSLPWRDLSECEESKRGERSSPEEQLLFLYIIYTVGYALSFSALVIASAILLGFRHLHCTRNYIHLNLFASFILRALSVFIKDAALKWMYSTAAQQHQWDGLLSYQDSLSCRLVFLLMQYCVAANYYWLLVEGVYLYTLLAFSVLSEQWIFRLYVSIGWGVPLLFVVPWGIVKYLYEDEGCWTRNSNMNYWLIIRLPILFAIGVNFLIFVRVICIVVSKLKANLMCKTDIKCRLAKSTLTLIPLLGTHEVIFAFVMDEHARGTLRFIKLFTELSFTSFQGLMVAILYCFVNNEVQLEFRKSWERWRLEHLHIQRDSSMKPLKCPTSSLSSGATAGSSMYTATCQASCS
The data set is described as follows: hGLP1R CreLuc assay in 0.5% and 100% plasma (HEK-293 CRE-luciferase reporter cells). The format is cell-based. The conditions noted are these: HEK-293 reporter cells.

The next data set has as its target T3, hNPY2R (Homo sapiens, UniProt P49146).
T3 construct: expressed in transfected cells; host or cells: HEK-293 CRE-luciferase reporter cells
T3 sequence (P49146 1-381): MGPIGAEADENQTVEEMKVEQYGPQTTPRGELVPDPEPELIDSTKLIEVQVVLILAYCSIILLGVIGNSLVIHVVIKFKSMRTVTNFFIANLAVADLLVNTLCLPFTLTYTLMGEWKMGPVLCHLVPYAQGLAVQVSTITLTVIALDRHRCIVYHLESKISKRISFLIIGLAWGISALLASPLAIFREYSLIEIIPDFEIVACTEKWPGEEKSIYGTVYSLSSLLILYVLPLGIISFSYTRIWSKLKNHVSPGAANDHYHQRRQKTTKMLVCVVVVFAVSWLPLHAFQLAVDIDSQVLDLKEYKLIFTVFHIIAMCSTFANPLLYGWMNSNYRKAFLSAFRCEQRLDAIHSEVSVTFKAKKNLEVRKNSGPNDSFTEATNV
The experiment in a line: hNPY2R CreLuc assay in 0.5% and 100% plasma (HEK-293 CRE-luciferase reporter cells). The conditions noted are these: HEK-293 reporter cells. Format: cell-based.

[3] abbreviates: 0.5% human plasma, read-out: hGIPR 0.5% hP.
Where [4] appears, read: 0.5% human plasma, read-out: hGLP1R 0.5% hP.
The mark [5] stands for this setting: 0.5% human plasma, read-out: hNPY2R 0.5% hP.

One may read the MRT as the average time that molecules of a dose stay in the body. What is called solubility is how much of the substance goes into solution per volume. On to `CC[C@H](C)[C@H](NC(=O)[C@H](CC(C)C)NC(=O)[C@H](Cc1c[nH]cn1)NC(=O)[C@H](CCCNC(=N)N)NC(=O)[C@@H](NC(=O)[C@H](Cc1ccccc1)NC(=O)[C@H](C)NC(=O)C(C)(C)NC(=O)[C@H](CCC(N)=O)NC(=O)[C@H](C)NC(=O)[C@H](CCC(N)=O)NC(=O)[C@H](CCCCN)NC(=O)[C@H](CCC(=O)O)NC(=O)[C@H](CC(C)C)NC(=O)C(C)(C)NC(=O)[C@@H](NC(=O)[C@H](CO)NC(=O)[C@H](Cc1ccc(O)cc1)NC(=O)[C@H](CC(=O)O)NC(=O)[C@H](CO)NC(=O)[C@@H](NC(=O)[C@H](Cc1ccccc1)NC(=O)[C@@H](NC(=O)CNC(=O)[C@H](CCC(=O)O)NC(=O)C(C)(C)NC(=O)[C@@H](N)Cc1ccc(O)cc1)[C@@H](C)O)[C@@H](C)O)[C@@H](C)CC)C(C)C)C(=O)N[C@@H](CC(N)=O)C(=O)N[C@@H](CCCCNC(=O)CCCCCNC(=O)CC[C@H](NC(=O)CC[C@H](NC(=O)CC[C@H](NC(=O)CC[C@H](NC(=O)CC[C@H](NC(=O)CC[C@H](NC(=O)CCCCCCCCCCCCCCCCC(=O)O)C(=O)O)C(=O)O)C(=O)O)C(=O)O)C(=O)O)C(=O)O)C(=O)NC(C)(C)C(=O)N[C@H](C(=O)N[C@@H](CCCNC(=N)N)C(=O)N[C@@H](CCC(N)=O)C(=O)N[C@@H](CCCNC(=N)N)C(=O)N[C@@H](Cc1ccc(O)cc1)C(N)=O)[C@@H](C)O` [Compound 9, Y-Aib-E-G-T-F-T-S-D-Y-S-I-Aib-L-E-K-Q-A-Q-Aib-A-F-V-R-H-L-I-N-K(1,3)-Aib-T-R-Q-R-Y-NH2.C18DA-gGlu-gGlu-gGlu-gGlu-gGlu-gGlu-AHX(1,2)], for which the MRT in data set [1] amounted to 7.5 h. Moreover, the solubility in data set [2] (read-out: Solubility) is 4.7 mg/mL.

As to `CC[C@H](C)[C@H](NC(=O)[C@H](CC(C)C)NC(=O)[C@H](Cc1c[nH]cn1)NC(=O)[C@H](CCCNC(=N)N)NC(=O)[C@@H](NC(=O)[C@H](Cc1ccccc1)NC(=O)[C@H](C)NC(=O)[C@H](Cc1ccc(O)cc1)NC(=O)[C@H](CCC(N)=O)NC(=O)[C@H](C)NC(=O)[C@H](CCC(N)=O)NC(=O)[C@H](CCCCN)NC(=O)[C@H](CCC(=O)O)NC(=O)[C@H](CC(C)C)NC(=O)C(C)(C)NC(=O)[C@@H](NC(=O)[C@H](CO)NC(=O)[C@H](Cc1ccc(O)cc1)NC(=O)[C@H](CC(=O)O)NC(=O)[C@H](CO)NC(=O)[C@@H](NC(=O)[C@H](Cc1ccccc1)NC(=O)[C@@H](NC(=O)CNC(=O)[C@H](CCC(=O)O)NC(=O)C(C)(C)NC(=O)[C@@H](N)Cc1ccc(O)cc1)[C@@H](C)O)[C@@H](C)O)[C@@H](C)CC)C(C)C)C(=O)N[C@@H](CC(N)=O)C(=O)N[C@@H](CCCCNC(=O)[C@@H](N)CCCCNC(=O)CC[C@H](NC(=O)CC[C@H](NC(=O)CC[C@H](NC(=O)CC[C@H](NC(=O)CC[C@H](NC(=O)CC[C@H](NC(=O)CCCCCCCCCCCCCCCCC(=O)O)C(=O)O)C(=O)O)C(=O)O)C(=O)O)C(=O)O)C(=O)O)C(=O)NC(C)(C)C(=O)N[C@H](C(=O)N[C@@H](CCCNC(=N)N)C(=O)N[C@@H](CCC(N)=O)C(=O)N[C@@H](CCCNC(=N)N)C(=O)N[C@@H](Cc1ccc(O)cc1)C(N)=O)[C@@H](C)O` [Compound 151, Y-Aib-E-G-T-F-T-S-D-Y-S-I-Aib-L-E-K-Q-A-Q-Y-A-F-V-R-H-L-I-N-K(1,3)-Aib-T-R-Q-R-Y-NH2.C18DA-gGlu-gGlu-gGlu-gGlu-gGlu-gGlu-eLys(1,2)], the pEC50 at hGIPR (setting [3]) is 9.30; on hGIPR (100% human plasma, read-out: hGIPR 100% hP), 8.25; on hGLP1R (100% human plasma, read-out: hGLP1R 100% hP), 8.15; at hNPY2R (100% human plasma, read-out: hNPY2R 100% hP), 7.05. Further, the solubility at 2 h in data set [2] worked out at 10.3 mg/mL.

For `CC[C@H](C)[C@H](NC(=O)[C@H](CC(C)C)NC(=O)[C@H](Cc1ccc(O)cc1)NC(=O)[C@H](CCCNC(=N)N)NC(=O)[C@@H](NC(=O)[C@H](Cc1ccccc1)NC(=O)[C@H](C)NC(=O)C(C)(C)NC(=O)[C@H](CCC(N)=O)NC(=O)[C@H](C)NC(=O)[C@H](CCC(N)=O)NC(=O)[C@H](CCCCN)NC(=O)[C@H](CC(=O)O)NC(=O)[C@H](CC(C)C)NC(=O)C(C)(C)NC(=O)[C@@H](NC(=O)[C@H](CO)NC(=O)[C@H](Cc1ccc(O)cc1)NC(=O)[C@H](CC(=O)O)NC(=O)[C@H](CO)NC(=O)[C@@H](NC(=O)[C@H](Cc1ccccc1)NC(=O)[C@@H](NC(=O)CNC(=O)[C@H](CCC(=O)O)NC(=O)C(C)(C)NC(=O)[C@@H](N)Cc1ccc(O)cc1)[C@@H](C)O)[C@@H](C)O)[C@@H](C)CC)C(C)C)C(=O)N[C@@H](CC(N)=O)C(=O)N[C@@H](CCCCNC(=O)[C@@H](N)CCCCNC(=O)CC[C@H](NC(=O)CC[C@H](NC(=O)CC[C@H](NC(=O)CC[C@H](NC(=O)CC[C@H](NC(=O)CC[C@H](NC(=O)CCCCCCCCCCCCCCCCC(=O)O)C(=O)O)C(=O)O)C(=O)O)C(=O)O)C(=O)O)C(=O)O)C(=O)NC(C)(C)C(=O)N[C@H](C(=O)N[C@@H](CCCNC(=N)N)C(=O)N[C@@H](CCC(N)=O)C(=O)N[C@@H](CCCNC(=N)N)C(=O)N[C@@H](Cc1ccc(O)cc1)C(N)=O)[C@@H](C)O` [Compound 153, Y-Aib-E-G-T-F-T-S-D-Y-S-I-Aib-L-D-K-Q-A-Q-Aib-A-F-V-R-Y-L-I-N-K(1,3)-Aib-T-R-Q-R-Y-NH2.C18DA-gGlu-gGlu-gGlu-gGlu-gGlu-gGlu-eLys(1,2)], the pEC50 at hGIPR (setting [3]) was 10.00; at hGLP1R (setting [4]), 10.00; at hNPY2R (setting [5]) it was 7.40. Besides, the solubility at 2 h in data set [2] stood at 8.2 mg/mL.

For `CC[C@H](C)[C@H](NC(=O)[C@H](CC(C)C)NC(=O)[C@H](Cc1c[nH]cn1)NC(=O)[C@H](CCCNC(=N)N)NC(=O)[C@@H](NC(=O)[C@H](Cc1ccccc1)NC(=O)[C@H](C)NC(=O)C(C)(C)NC(=O)[C@H](CCC(N)=O)NC(=O)[C@H](C)NC(=O)[C@H](CCC(N)=O)NC(=O)[C@H](CCCCN)NC(=O)[C@H](CCC(=O)O)NC(=O)[C@H](CC(C)C)NC(=O)C(C)(C)NC(=O)[C@@H](NC(=O)[C@H](CO)NC(=O)[C@H](Cc1ccc(O)cc1)NC(=O)[C@H](CC(=O)O)NC(=O)[C@H](CO)NC(=O)[C@@H](NC(=O)[C@H](Cc1ccccc1)NC(=O)[C@@H](NC(=O)CNC(=O)[C@H](CCC(=O)O)NC(=O)C(C)(C)NC(=O)[C@@H](N)Cc1ccc(O)cc1)[C@@H](C)O)[C@@H](C)O)[C@@H](C)CC)C(C)C)C(=O)N[C@@H](CC(N)=O)C(=O)N[C@@H](CCCCNC(=O)CCCCCNC(=O)CC[C@H](NC(=O)CC[C@H](NC(=O)CC[C@H](NC(=O)CC[C@H](NC(=O)CC[C@H](NC(=O)CCCCCCCCCCCCCCCCCCC(=O)O)C(=O)O)C(=O)O)C(=O)O)C(=O)O)C(=O)O)C(=O)NC(C)(C)C(=O)N[C@H](C(=O)N[C@@H](CCCNC(=N)N)C(=O)N[C@@H](CCC(N)=O)C(=O)N[C@@H](CCCNC(=N)N)C(=O)N[C@@H](Cc1ccc(O)cc1)C(N)=O)[C@@H](C)O` [Compound 167, Y-Aib-E-G-T-F-T-S-D-Y-S-I-Aib-L-E-K-Q-A-Q-Aib-A-F-V-R-H-L-I-N-K(1,3)-Aib-T-R-Q-R-Y-NH2.C20DA-gGlu-gGlu-gGlu-gGlu-gGlu-AHX(1,2)], the figures for the pEC50 on hGIPR (setting [3]), on hGLP1R (setting [4]) and on hNPY2R (setting [5]) were 9.70, 9.00 and 7.88, respectively. For the same compound, in data set [2], the solubility at 2 h amounted to 10 mg/mL.
